# Earlier results in EP0436316A1, “X-ray contrast media for prolonged opacification” (Sovak, Milos, priority 1989, dated 1991).
# Tested on: peritoneal surface
# Conditions: barium sulfate spilled into the abdomen after a perforation
smiles,measurement,value
O=S(=O)([O-])[O-].[Ba+2] [barium sulfate],mortality rate of barium peritonitis,~50%
